Results: US20040038958A1, “Topical treatment of skin diseases” (priority 2002, published 2004)
“Also recorded” adds a separate entry of the source.

Assays:
mice sensitized to TDI = experiment: Mouse ear swelling test in mice sensitized to toluene-2,4-diisocyanate (TDI), topical application; type: in vivo, BALB/c-mice; conditions: for TDI-induced ear swelling: AWD 12-281 1%, cilomilast 3%, diflorasone 0.05%
Method: FIG. 6: Effect of PDE 4 inhibitors on TDI induced ear swelling in mice. […] After 1 h (grey bars) groups of mice were treated with 3% AWD 12-281, 10% cilomilast or left untreated (TDI). After 24 h, ear swelling was determined (black bars). […] Female BALB/c-mice were obtained from Charles River (Sulzfeld, Germany) at the age of 8 weeks (20 g body weight). All animals were healthy and were housed in groups of six mice per cage at 22° C. with a 12-h light/dark-cycle. Water and a standard diet (Altromin, […], Germany) were available ad libitum. After settling in for 1 week, the abdominal skin of the mice was shaved and depilated with Veet®. Subsequently, the horny layers of the abdominal skin were stripped off ten times with adhesive tapes. […] Before as well as 24 h after challenge, the ear thickness was measured with a cutimeter (model 7309, Mitutoyo, Neuss, Germany) The swelling was calculated by comparison of the values before challenge with 24 h after challenge. […] The other mice were equally distributed to the treatment groups (n=6) according to their swelling intensity, so that each group contained animals which had responded to varying extents. They had to rest until the ear thickness had reached almost a normal level after 7 days. To exclude residues of the allergen on the ears, the untreated right ears were used for the main experiment. One group of mice (n=6) was not sensitized and challenged. […] Two hours before TDI-challenge, the third and fourth group (each n=6) were treated with 20 μl (10 μl on both, the inner and outer surface) AWD 12-281 (1%=200 μg) or 20 μl cilomilast (3%=600 μg; each in acetone/DMSO 9:1) to the right ears. […] These mice were sacrificed by cervical dislocation 24 hours after TDI challenge and the ears were collected (see below). […] Five weeks after the first challenge, the animals treated with AWD 12-281 (1%) and cilomilast (3%) “therapeutically” were challenged again. Before challenge, one group was treated with AWD 12-281 (3%).

[1] = test system: passively sensitized human airways; conditions: Schmidt et al., 2000; cited from earlier work

SMILES: O=C(Nc1c(Cl)cncc1Cl)C(=O)c1cn(Cc2ccc(F)cc2)c2ccc(O)cc12 [AWD 12-281, N-(3,5-Dichloro-4-pyridinyl)-2-[1-(4-fluoro-benzyl)-5-hydroxy-1 H-indol-3-yl]-2-oxoacetamide]
- Ear swelling (%) (mice sensitized to TDI; AWD 12-281 3% topical before challenge, rechallenge five weeks after first challenge, 24 h after TDI challenge, vehicle control 51 ± 7, mean ± s.e.): 1 ± 2 %
- TDI-induced ear swelling (mice sensitized to TDI; single topical application 2 h before TDI challenge, 1, 5 and 24 h after challenge): inhibited the TDI-induced swelling significantly at all measured times
- TDI-induced ear swelling (mice sensitized to TDI; topical 1 h after TDI challenge (therapeutic), 24 h after challenge): reduced the inflammatory response to TDI significantly; also recorded: inhibited the TDI induced ear swelling significantly
- TDI-induced ear swelling (mice sensitized to TDI; topical 1 h after TDI challenge (therapeutic), 24 h after challenge, listed as AWD12-281): significant inhibition of ear swelling
- TDI induced ear swelling (mice sensitized to TDI; treated 1 h after 0.5% TDI, 3% AWD 12-281, 10% cilomilast, ear swelling after 24 h (FIG. 6)): reduced ear swelling significantly
- bronchospasmogenic effect of an allergen [1]: significantly reduced the bronchospasmogenic effect of an allergen
